Measured values as given in patent publication US8211929B2, “Pyrimidine derivatives as kinase modulators and method of use” (Exelixis, Inc., priority 2004, dated 2012).
Like-named read-outs stand apart in the source and are kept apart here.

Assays:
[1] = target: T1, (Homo sapiens, UniProt P08069); test: IGF1R kinase assay (LCCA), IGF 0P; format: biochemical
T1 construct: human IGF1R kinase domain residues M954-C1367; made in house; host or cells: baculovirus expression (insect cells)
In short: (§1)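 Baculovirus-expressed human IGF1R kinase domain (M954-C1367), 4 nM, with 3 μM ATP and 4 μM poly EY in Tris-HCl pH 7.5 buffer containing MgCl2 and MnCl2, 2 h at ambient temperature. Remaining ATP read by luciferase chemiluminescence; IC50 from 10-point dose-response fitted to a four-parameter equation.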

[2] = target: T2, IGF 3P (Homo sapiens, UniProt P08069); test: IGF1R kinase assay (LCCA), IGF 3P; format: biochemical
T2 construct: human IGF1R kinase domain residues M954-C1367; made in house; host or cells: baculovirus expression (insect cells)
In short: as §1

T2 sequence (P08069 954-1367): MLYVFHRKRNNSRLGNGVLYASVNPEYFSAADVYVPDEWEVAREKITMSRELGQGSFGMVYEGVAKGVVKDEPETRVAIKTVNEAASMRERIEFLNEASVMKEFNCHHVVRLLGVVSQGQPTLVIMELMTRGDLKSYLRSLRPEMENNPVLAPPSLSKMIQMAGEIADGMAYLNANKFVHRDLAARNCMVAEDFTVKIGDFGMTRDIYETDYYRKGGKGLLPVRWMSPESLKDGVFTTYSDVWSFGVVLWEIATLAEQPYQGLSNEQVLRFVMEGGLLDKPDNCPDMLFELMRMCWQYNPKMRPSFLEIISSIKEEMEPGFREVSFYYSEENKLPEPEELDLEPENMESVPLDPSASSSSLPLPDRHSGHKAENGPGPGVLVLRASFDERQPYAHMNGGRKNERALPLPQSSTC
T1 sequence (P08069 954-1367): as above

| Structure (SMILES) | IC50 ([1]; IGF1R kinase LCCA assay) [nM] | IC50 ([2]; IGF1R kinase LCCA assay) [nM] | IC50 [1] [nM] | IC50 [2] [nM] |
| --- | --- | --- | --- | --- |
| Brc1cnc(NC2CCCc3ccccc32)nc1Nc1cc(C2CC2)[nH]n1 (centres unmarked) [Example 34] | 50 to 500 | 500 to 5000 |  |  |
| Cc1cc(Nc2cc(OCCN3CCOCC3)nc(NCc3cc(-c4ccccc4)no3)n2)[nH]n1 [Example 619, N^4-(3-methyl-1H-pyrazol-5-yl)-6-[(2-morpholin-4-ylethyl)oxy]-N^2-[(3-phenylisoxazol-5-yl)methy]pyrimidine-2,4-diamine] |  |  | 50 to 500 | 50 to 500 |
| FC(F)(F)c1ccc(-c2ncc(CNc3ncc(Br)c(Nc4cc(C5CC5)[nH]n4)n3)s2)cc1 [Example 288] | > 5000 | > 5000 |  |  |
| CC(C)(C)OC(=O)N1CC[C@@H](NC(=O)c2ccc(Nc3ncc(Br)c(Nc4cc(C5CC5)n[nH]4)n3)cc2)C1 [Example 145] | 500 to 5000 | 50 to 500 |  |  |
| Cc1cc(Nc2cc(C3CC3)n[nH]2)nc(Nc2ccc(CCNC(=O)OC(C)(C)C)cc2)n1 [Example 568] | 500 to 5000 | 500 to 5000 |  |  |
| FC(F)(F)c1cccc(CNc2ncc(Br)c(Nc3cc(C4CC4)n[nH]3)n2)c1 [Example 263] | 500 to 5000 | > 5000 |  |  |
| Cc1cc(Nc2ccccc2)nc(Nc2ccc(N3CCOCC3)cc2)n1 [Example 567] | 500 to 5000 | 500 to 5000 |  |  |
| Brc1cnc(Nc2ccc(N3CCOCC3)cc2)nc1Nc1ccc2c(c1)CNCC2 [Example 534] | 500 to 5000 | < 50 |  |  |
| Clc1cccc(CCNc2ncc(Br)c(Nc3cc(C4CC4)n[nH]3)n2)c1 [Example 226] | > 5000 | 500 to 5000 |  |  |
| NCCCCn1cc(-c2cccc(OCc3ccccc3)c2)c2c(N)ncnc21 [Example 344] | > 5000 | 500 to 5000 |  |  |
| O=C(NCc1ccccc1)c1nc(Nc2ccccc2Cl)nc(Nc2cc(C3CC3)n[nH]2)c1[N+](=O)[O-] [Example 239] | 500 to 5000 | 500 to 5000 |  |  |
| CN(C)c1ccc(Nc2nccc(Nc3cc(C4CC4)n[nH]3)n2)cc1 [Example 238] | 500 to 5000 | 500 to 5000 |  |  |
| CC(C)c1cc(Nc2cc(N3CCOCC3)nc(NCc3cc(-c4ccc(F)cc4)no3)n2)[nH]n1 [Example 607, N^2-{[3-(4-fluorophenyl)isoxazol-5-yl]methyl}-N^4-[3-(1-methylethyl)-1H-pyrazol-5-yl]-6-morpholin-4-ylpyrimidine-2,4-diamine] |  |  | 50 to 500 | < 50 |
| CC(C)c1cc(Nc2cc(OCCN3CCOCC3)nc(NCc3cc(-c4ccccc4)no3)n2)n[nH]1 [Example 588, N^4-[5-(1-methylethyl)-1H-pyrazol-3-yl]-6-[(2-morpholin-4-ylethyl)oxy]-N^2-[(3-phenylisoxazol-5-yl)methyl]pyrimidine-2,4-diamine] |  |  | 50 to 500 | < 50 |
| CCN(CC)CCNC(=O)c1cc(Nc2cc(C3CC3)[nH]n2)nc(NCc2cc(-c3ccccc3)no2)n1 [Example 530] | 50 to 500 | < 50 |  |  |
| CN1CCN(c2cc(Nc3cc(C4CC4)[nH]n3)nc(NCc3cc(-c4cccs4)no3)n2)CC1 [Example 640, N^4-(5-cyclopropyl-1H-pyrazol-3-yl)-6-(4-methylpiperazin-1-yl)-N^2-{[3-(2-thienyl)isoxazol-5-yl]methyl}pyrimidine-2,4-diamine] |  |  | 50 to 500 | < 50 |
| Cc1cc(CNc2nc(Nc3cc(C4CC4)[nH]n3)cc(NC3CC4CCC3C4)n2)on1 (centres unmarked) [Example 634, N^4-bicyclo[2.2.1]hept-2-yl-N^6-(5-cyclopropyl-1H-pyrazol-3-yl)-N^2-[(3-methylisoxazol-5-yl)methyl]pyrimidine-2,4,6-triamine] |  |  | 50 to 500 | < 50 |
| CC(C)c1cc(Nc2cc(OCCN(C)C)nc(NCc3cc(-c4ccccc4)no3)n2)n[nH]1 [Example 518] | 50 to 500 | < 50 |  |  |
| O=C(NCCN1CCCCC1)c1cc(Nc2cc(C3CC3)[nH]n2)nc(NCc2cc(-c3ccccc3)no2)n1 [Example 531] | 50 to 500 | < 50 |  |  |
| CSc1ccccc1Nc1ncc(Br)c(Nc2cc(C3CC3)n[nH]2)n1 [Example 131] | 500 to 5000 | 50 to 500 |  |  |
| c1ccc(CN2CCc3c(nc(Nc4ccc(N5CCOCC5)cc4)nc3Nc3cc(C4CC4)[nH]n3)C2)cc1 [Example 281] | > 5000 | > 5000 |  |  |
| CN(C)CCOc1cc(Nc2cc(C3CC3)[nH]n2)nc(NCc2cc(-c3ccncn3)no2)n1 [Example 638, N^4-(5-cyclopropyl-1H-pyrazol-3-yl)-6-{[2-(dimethylamino)ethyl]oxy}-N^2-[(3-pyrimidin-4-ylisoxazol-5-yl)methyl]pyrimidine-2,4-diamine] |  |  | 50 to 500 | < 50 |
| Cc1cc(CNc2nc(Nc3cc(C4CC4)n[nH]3)cc(N3CCN(C)CC3)n2)on1 [Example 602, N^4-(3-cyclopropyl-1H-pyrazol-5-yl)-N^2-[(3-methylisoxazol-5-yl)methyl]-6-(4-methylpiperazin-1-yl)pyrimidine-2,4-diamine] |  |  | 50 to 500 | < 50 |
| Brc1cnc(Nc2cccc3ccccc23)nc1Nc1cc(C2CC2)[nH]n1 [Example 130] | 50 to 500 | 50 to 500 |  |  |
| CN(C)CCCNc1ncc(Br)c(Nc2cc(C3CC3)n[nH]2)n1 [Example 254] | > 5000 | 500 to 5000 |  |  |

| Structure (SMILES) | IC50 ([1]; IGF1R kinase LCCA assay) [nM] | IC50 ([2]; IGF1R kinase LCCA assay) [nM] | IC50 [1] [nM] | IC50 [2] [nM] |
| --- | --- | --- | --- | --- |
| O=C(NCCN1CCOCC1)c1nc(Nc2ccccc2Cl)nc(Nc2cc(C3CC3)n[nH]2)c1[N+](=O)[O-] [Example 228] | 500 to 5000 | 500 to 5000 |  |  |
| Cc1cc(Nc2nc(Nc3ccc(N4CCOCC4)cc3)ncc2Br)n(C)n1 [Example 215] | > 5000 | 500 to 5000 |  |  |
| Cc1cc(Nc2cc(C3CC3)[nH]n2)nc(NCc2cc(-c3ccc(F)c(F)c3)no2)n1 [Example 621, N^4-(5-cyclopropyl-1H-pyrazol-3-yl)-N^2-{[3-(3,4-difluorophenyl)isoxazol-5-yl]methyl}-6-methylpyrimidine-2,4-diamine] |  |  | 50 to 500 | < 50 |
| Cc1cc(Nc2cc(C3CC3)n[nH]2)nc(Nc2ccc(C3CCN(C(=O)OC(C)(C)C)CC3)cc2)n1 [Example 566] | 500 to 5000 | 500 to 5000 |  |  |
| Cc1cc(Nc2cc(C3CC3)n[nH]2)nc(Nc2ccc(N3CCN(C)CC3)cc2)n1 [Example 569] | 500 to 5000 | 500 to 5000 |  |  |
| Brc1cnc(Nc2ccc3[nH]ccc3c2)nc1Nc1cc(C2CC2)n[nH]1 [Example 132] | 50 to 500 | 50 to 500 |  |  |
| CC(C)c1cc(CNc2nc(Nc3cc(C(C)C)[nH]n3)cc(OCCN3CCOCC3)n2)on1 [Example 587, N-{[3-(1-methylethyl)isoxazol-5-yl]methyl}-N^4-[5-(1-methylethyl)-1H-pyrazol-3-yl]-6-[(2-morpholin-4-ylethyl)oxy]pyrimidine-2,4-diamine] |  |  | 500 to 5000 | < 50 |
| Cc1c(Br)cccc1Nc1ncc(Br)c(Nc2cc(C3CC3)[nH]n2)n1 [Example 95] | 50 to 500 | 50 to 500 |  |  |
| Brc1cnc(NCC2CCNCC2)nc1Nc1cc(C2CC2)n[nH]1 [Example 198] | > 5000 | 500 to 5000 |  |  |
| Fc1ccc(-c2cc(CNc3nc(Nc4cc(C5CC5)n[nH]4)cc(OCCN4CCOCC4)n3)on2)cc1 [Example 606, N^4-(3-cyclopropyl-1H-pyrazol-5-yl)-N^2-{[3-(4-fluorophenyl)isoxazol-5-yl]methyl}-6-[(2-morpholin-4-ylethyl)oxy]pyrimidine-2,4-diamine] |  |  | 50 to 500 | < 50 |
| c1ccc(-c2cc(CNc3nc(Nc4cc(C5CC5)[nH]n4)cc(N4CCNCC4)n3)on2)cc1 [Example 499] | 50 to 500 | < 50 |  |  |
| CCN(CC)CCCNc1nc(Nc2cc(C3CC3)n[nH]2)c(Cl)c(Nc2ccccc2Cl)n1 [Example 160] | > 5000 | 500 to 5000 |  |  |
| Cc1ccc(C(C)C)cc1Nc1ncc(Br)c(Nc2cc(C3CC3)n[nH]2)n1 [Example 165] | 500 to 5000 | 500 to 5000 |  |  |
| Clc1ccccc1Nc1ncc(Br)c(Nc2n[nH]c3ccccc23)n1 [Example 267] | > 5000 | > 5000 |  |  |
| O=C(Nc1ccc(N2CCOCC2)cc1)c1nc(Nc2ccccc2Cl)nc(Nc2cc(C3CC3)n[nH]2)c1[N+](=O)[O-] [Example 278] | > 5000 | > 5000 |  |  |
| Nc1nc(Nc2ccc(N3CCOCC3)cc2)ncc1Br [Example 287] | > 5000 | > 5000 |  |  |
| Cc1cc(Nc2cc(C3CC3)[nH]n2)nc(NC(c2ccccc2)c2nc(-c3ccccc3)co2)n1 (centres unmarked) [Example 572] | 500 to 5000 | 500 to 5000 |  |  |
| CCN1CCN(c2cc(Nc3cc(C4CC4)n[nH]3)nc(NCc3cc(C(C)C)no3)n2)CC1 [Example 661, N^4-(3-cyclopropyl-1H-pyrazol-5-yl)-6-(4-ethylpiperazin-1-yl)-N^2-{[3-(1-methylethyl)isoxazol-5-yl]methyl}pyrimidine-2,4-diamine] |  |  | 50 to 500 | < 50 |
| COc1ccc(-c2cc(CNc3ncc(Br)c(Nc4cc(C5CC5)[nH]n4)n3)on2)cc1 [Example 277] | > 5000 | > 5000 |  |  |
| Brc1cnc(Nc2ccc(-c3ccccc3)cc2)nc1Nc1cc(C2CC2)[nH]n1 [Example 322] | > 5000 | > 5000 |  |  |
| Cc1cc(Nc2cc(C3CC3)n[nH]2)nc(Nc2ccc3c(c2)CNCC3)n1 [Example 545] | 500 to 5000 | 50 to 500 |  |  |
| CC(C)c1cc(CNc2nc(NCCN3CCN(C)CC3)cc(Nc3cc(C4CC4)[nH]n3)n2)on1 [Example 559] | 500 to 5000 | < 50 |  |  |
| CN(C)c1ccc(CNc2ncc(Br)c(Nc3cc(C4CC4)n[nH]3)n2)cc1 [Example 193] | > 5000 | 500 to 5000 |  |  |
| Cc1cc(Nc2cc(C3CC3)n[nH]2)nc(Nc2ccc3cc(C(=O)NCCN4CCCC4)sc3c2)n1 [Example 173] | 500 to 5000 | 500 to 5000 |  |  |
